One data set is described as follows: Solubility at pH 6.8. The class given is physicochemical. In outline:
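Solubility was measured at pH 6.8 following the cited Zhou et al. (2007) procedure.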

A further data set concerns the target T1, PI3K alpha (Homo sapiens, UniProt P42336).
T1 construct: p85(iSH2) fusion partner (see partner chain) (N); His tag (C); made in house; host or cells: baculovirus; Tn5 (Trichoplusia ni) or TiniPro insect cells
Kind of data set: PI3K alpha kinase assay (Kinase-Glo luminescence). The data set is classed as biochemical. In outline:
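Compounds are titrated at 8 concentrations and mixed with PI3Kα protein (EMV B1075, 10 nM) in phosphatidylinositol (10 μg/mL). ATP at 1 μM starts the 60-minute room-temperature reaction, which is stopped with Kinase-Glo before luminescence reading. Four-parameter curve fitting gives IC50.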
On the technique in general: Kinase-Glo measures the ATP left after a reaction by luminescence.

The next data set addresses T2, PI3K beta (Homo sapiens, UniProt P42338).
T2 construct: for the full-length p110-b subunit are generated and fused by overlapping PCR; p85(iSH2) fusion partner (see partner chain) (N); His tag (C); made in house; host or cells: baculovirus; Tn5 (Trichoplusia ni) or TiniPro insect cells
Put plainly: PI3K beta kinase assay (Kinase-Glo luminescence). The data set is classed as biochemical. In outline: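 Enzyme: BV949 p85(iSH2)-Gly linker-p110β FL-His, 25 nM. Substrate: PI 10 μg/mL. ATP: 1 μM, added to start. Buffer: Tris pH 7.5 10 mM, MgCl2 3 mM, NaCl 50 mM, CHAPS 0.05%, DTT 1 mM. RT, 60 min. Readout: Kinase-Glo. IC50 by 4-parameter fit.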

A further data set deals with T3, PI3K delta (Homo sapiens, UniProt O00329).
T3 construct: for the full-length p110-d subunit are generated and fused by overlapping PCR; p85(iSH2) fusion partner (see partner chain) (N); His tag (C); made in house; host or cells: baculovirus; Tn5 (Trichoplusia ni) or TiniPro insect cells
T3 sequence (O00329 with tags, fused parts or gaps limits assumed): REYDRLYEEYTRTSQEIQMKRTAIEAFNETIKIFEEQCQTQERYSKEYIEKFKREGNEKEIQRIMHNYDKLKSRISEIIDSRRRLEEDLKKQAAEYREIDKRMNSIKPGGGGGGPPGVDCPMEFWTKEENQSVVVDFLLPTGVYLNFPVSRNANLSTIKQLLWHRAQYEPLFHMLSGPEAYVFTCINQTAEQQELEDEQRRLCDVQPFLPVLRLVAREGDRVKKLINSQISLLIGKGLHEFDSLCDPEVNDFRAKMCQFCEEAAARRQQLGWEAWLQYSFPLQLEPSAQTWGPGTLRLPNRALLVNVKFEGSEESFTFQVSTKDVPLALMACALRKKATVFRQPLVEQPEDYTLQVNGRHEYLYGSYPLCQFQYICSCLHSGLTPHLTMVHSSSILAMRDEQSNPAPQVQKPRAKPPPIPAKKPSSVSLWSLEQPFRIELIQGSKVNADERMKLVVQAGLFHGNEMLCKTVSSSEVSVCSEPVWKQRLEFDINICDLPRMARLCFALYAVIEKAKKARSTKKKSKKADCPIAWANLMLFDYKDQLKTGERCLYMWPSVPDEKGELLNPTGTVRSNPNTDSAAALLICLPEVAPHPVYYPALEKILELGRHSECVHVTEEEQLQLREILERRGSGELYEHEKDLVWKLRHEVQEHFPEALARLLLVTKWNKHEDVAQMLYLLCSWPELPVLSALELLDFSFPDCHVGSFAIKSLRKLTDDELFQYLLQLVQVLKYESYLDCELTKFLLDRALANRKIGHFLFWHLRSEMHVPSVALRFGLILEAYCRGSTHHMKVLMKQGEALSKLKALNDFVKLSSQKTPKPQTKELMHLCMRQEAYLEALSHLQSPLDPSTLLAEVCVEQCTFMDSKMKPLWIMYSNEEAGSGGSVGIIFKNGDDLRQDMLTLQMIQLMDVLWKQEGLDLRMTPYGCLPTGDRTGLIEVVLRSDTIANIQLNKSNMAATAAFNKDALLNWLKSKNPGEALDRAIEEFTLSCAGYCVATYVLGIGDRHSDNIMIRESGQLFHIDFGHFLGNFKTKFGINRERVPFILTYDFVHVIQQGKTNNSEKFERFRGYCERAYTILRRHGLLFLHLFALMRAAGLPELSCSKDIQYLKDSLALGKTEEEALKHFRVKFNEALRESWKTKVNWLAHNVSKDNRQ
Put plainly: PI3K delta kinase assay (Kinase-Glo luminescence). The class given is biochemical. In outline:
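ATP 1 μM, PI 10 μg/mL, PI3Kδ construct BV1060 10 nM (final); 10 mM Tris pH 7.5, 3 mM MgCl2, 50 mM NaCl, 0.05% CHAPS, 1 mM DTT; 60 min RT; Kinase-Glo stop, luminescence.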

In a further data set the target is T4, PI3K gamma (Homo sapiens, UniProt P48736).
T4 construct: His tag (C); made in house; host or cells: baculovirus (pVL1393); Tn5 or TiniPro insect cells; construct from Roger Williams lab, MRC LMB
T4 sequence (P48736 144-1102 limits assumed): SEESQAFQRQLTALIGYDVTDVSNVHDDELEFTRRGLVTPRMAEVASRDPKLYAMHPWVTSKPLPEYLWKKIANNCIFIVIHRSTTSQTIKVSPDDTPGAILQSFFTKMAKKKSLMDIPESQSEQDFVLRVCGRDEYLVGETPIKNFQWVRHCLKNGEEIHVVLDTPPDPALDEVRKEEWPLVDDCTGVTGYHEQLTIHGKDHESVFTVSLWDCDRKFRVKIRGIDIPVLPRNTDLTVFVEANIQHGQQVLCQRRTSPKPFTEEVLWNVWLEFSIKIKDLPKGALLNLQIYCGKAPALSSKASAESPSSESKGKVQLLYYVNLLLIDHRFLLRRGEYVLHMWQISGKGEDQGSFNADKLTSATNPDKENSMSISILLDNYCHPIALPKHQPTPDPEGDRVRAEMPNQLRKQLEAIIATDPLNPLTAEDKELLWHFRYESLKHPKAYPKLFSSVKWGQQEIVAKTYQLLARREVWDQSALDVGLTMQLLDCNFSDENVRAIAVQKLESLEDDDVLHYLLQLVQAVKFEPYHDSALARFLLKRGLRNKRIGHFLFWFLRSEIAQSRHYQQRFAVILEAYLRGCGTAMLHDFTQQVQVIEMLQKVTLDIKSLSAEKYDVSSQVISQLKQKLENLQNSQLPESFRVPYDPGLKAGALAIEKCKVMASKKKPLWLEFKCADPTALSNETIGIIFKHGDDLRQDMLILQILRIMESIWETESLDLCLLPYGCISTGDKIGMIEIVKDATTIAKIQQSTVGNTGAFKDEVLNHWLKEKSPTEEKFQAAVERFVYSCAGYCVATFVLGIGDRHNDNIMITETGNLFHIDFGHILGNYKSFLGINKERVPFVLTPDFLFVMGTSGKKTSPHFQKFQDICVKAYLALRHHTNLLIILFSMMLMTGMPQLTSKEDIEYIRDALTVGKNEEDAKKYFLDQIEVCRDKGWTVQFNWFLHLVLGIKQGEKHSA
Kind of data set: PI3K gamma kinase assay (Kinase-Glo luminescence). The class given is biochemical. How it is done:
In a more preferred assay, the kinase reaction is performed in a final volume of 10 μL per well of a low volume non binding CORNING, 384 well black plate (Cat. No. #3676). The final concentrations of ATP and phosphatidyl inositol (PI) in the assay are 1 μM and 10 μg/mL respectively. The reaction is started by the addition of ATP.
The components of the assay are added per well as follows:
[…] in 90% DMSO per well, in columns 1-20, 8 concentrations (1/3 and 1/3.33 serial dilution step) in single. • Low control: […] of 90% DMSO in half the wells of columns 23-24 (0.45% in final). • High control: […] of reference compound (e.g. compound of Example 7 in WO 2006/122806) in the other half of columns 23-24 (2.5 μM in final). • Standard: […] of reference compound as just mentioned diluted as the test compounds in columns 21-22 • 20 mL ‘buffer’ are prepared per assay: • 200 μL of 1M TRIS HCl pH7.5 (10 mM in final) • 60 μL of 1M MgCl2 (3 mM in final) • 500 μL of 2M NaCl (50 mM in final) • 100 μL of 10% CHAPS (0.05% in final) • 200 μL of 100 mM DTT (1 mM in final) • 18.94 mL of nanopure water • 10 mL ‘PI’ are prepared per assay: • 200 μL of 1 mg/ml L-alpha-Phosphatidylinositol (Liver Bovine, Avanti Polar Lipids Cat. No. 840042C MW=909.12) prepared in 3% OctylGlucoside (10 μg/ml in final) • 9.8 mL of ‘buffer’ • 10 mL ‘ATP’ are prepared per assay: • 6.7 μL of 3 mM stock of ATP giving a final concentration of 1 μM per well • 10 mL of ‘buffer’ • 2.5 mL of each PI3K construct are prepared per assay in ‘PI’ with the following final concentration: • 10 nM PI3K alfa EMV B1075 • 25 nM beta EMV BV949 • 10 nM delta EMV BV1060 • 150 nM gamma EMV BV950 • 5 μL of ‘PI/PI3K’ are added per well. • 5 μl ‘ATP’ are added per well to start the reaction. • The plates are then incubated at room temperature for 60 minutes (alfa, beta, delta) or 120 minutes (gamma). • The reaction is terminated by the addition of 10 μL Kinase-Glo (Promega Cat. No. #6714). • The assay plates are read after 10 minutes in Synergy 2 reader (BioTek, Vermont USA) with an integration time of 100 milliseconds and sensitivity set to 191. • Output: The High control is around 60'000 counts and the Low control is 30'000 or lower • This luminescence assay gives a useful Z′ ratio between 0.4 and 0.7
IC50 is determined by a four parameter curve fitting routine that comes along with “excel fit”. […] Alternatively, IC50 values are calculated using idbsXLfit model 204, which is a 4 parameter logistic model.

Data set [1] deals with PKB Ser473 phosphorylation in Rat1-myr-HA-p110 alpha cells. Kind of data set: Reverse protein array assay, PKB Ser473 phosphorylation in Rat1-myr-p110 alpha cells. The data set is classed as cell-based. The settings on record: 0.5 h, pAkt Ser473, 30 minutes compound incubation, read-out: p-PKB IC50. In outline: (§1)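 Measured: PKB Ser473 phosphorylation by reverse protein array in Rat1 cells expressing myr-HA-p110 alpha, beta or delta, after 30 min compound treatment at 37 °C with 0.2% DMSO vehicle.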

For data set [2], the system named is PKB Ser473 phosphorylation in Rat1-myr-HA-p110 beta cells. Kind of data set: Reverse protein array assay, PKB Ser473 phosphorylation in Rat1-myr-p110 beta cells. The data set is classed as cell-based. The conditions noted are these: 0.5 h, pAkt Ser473, 30 minutes incubation, read-out: p-PKB IC50. The essentials: as §1
Data set [3] deals with PKB Ser473 phosphorylation in Rat1-myr-HA-p110 delta cells. Put plainly: Reverse protein array assay, PKB Ser473 phosphorylation in Rat1-myr-p110 delta cells. The data set is classed as cell-based. The settings on record: read-out: p-PKB IC50. In outline:
as §1

The next data set deals with T5, mTOR (Homo sapiens, UniProt P42345).
T5 construct: purchased Invitrogen Corporation (Carlsbad/CA, USA) PV4753
Put plainly: Biochemical assay for m-TOR by TR-FRET. The conditions noted are these: 8 μM ATP, 400 nM GFP-4EBP1, 0.5 nM mTOR. The essentials:
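Steps: ATP (8 μM final) plus GFP-4EBP1 (400 nM final) combined with mTOR (0.5 nM final), incubated at rt; buffer HEPES pH 7.5 with 10 mM MnCl2, NaCl, EGTA, DTT. Then stopped with EDTA/Tb3+-anti-p4EBP1 pT46 Ab (0.5 nM). Plates read after 15 min.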
(In general: TR-FRET usually uses a lanthanide donor and a delayed reading to cut background.)

The mark [4] stands for this setting: pH 6.8, aqueous buffer, thermodynamic from solid, read-out: solubility.

≈ marks a conversion by molar mass, not a printed value. Where two headings read alike, the source gives them in different places.

T2 sequence (P42338 with tags, fused parts or gaps limits assumed): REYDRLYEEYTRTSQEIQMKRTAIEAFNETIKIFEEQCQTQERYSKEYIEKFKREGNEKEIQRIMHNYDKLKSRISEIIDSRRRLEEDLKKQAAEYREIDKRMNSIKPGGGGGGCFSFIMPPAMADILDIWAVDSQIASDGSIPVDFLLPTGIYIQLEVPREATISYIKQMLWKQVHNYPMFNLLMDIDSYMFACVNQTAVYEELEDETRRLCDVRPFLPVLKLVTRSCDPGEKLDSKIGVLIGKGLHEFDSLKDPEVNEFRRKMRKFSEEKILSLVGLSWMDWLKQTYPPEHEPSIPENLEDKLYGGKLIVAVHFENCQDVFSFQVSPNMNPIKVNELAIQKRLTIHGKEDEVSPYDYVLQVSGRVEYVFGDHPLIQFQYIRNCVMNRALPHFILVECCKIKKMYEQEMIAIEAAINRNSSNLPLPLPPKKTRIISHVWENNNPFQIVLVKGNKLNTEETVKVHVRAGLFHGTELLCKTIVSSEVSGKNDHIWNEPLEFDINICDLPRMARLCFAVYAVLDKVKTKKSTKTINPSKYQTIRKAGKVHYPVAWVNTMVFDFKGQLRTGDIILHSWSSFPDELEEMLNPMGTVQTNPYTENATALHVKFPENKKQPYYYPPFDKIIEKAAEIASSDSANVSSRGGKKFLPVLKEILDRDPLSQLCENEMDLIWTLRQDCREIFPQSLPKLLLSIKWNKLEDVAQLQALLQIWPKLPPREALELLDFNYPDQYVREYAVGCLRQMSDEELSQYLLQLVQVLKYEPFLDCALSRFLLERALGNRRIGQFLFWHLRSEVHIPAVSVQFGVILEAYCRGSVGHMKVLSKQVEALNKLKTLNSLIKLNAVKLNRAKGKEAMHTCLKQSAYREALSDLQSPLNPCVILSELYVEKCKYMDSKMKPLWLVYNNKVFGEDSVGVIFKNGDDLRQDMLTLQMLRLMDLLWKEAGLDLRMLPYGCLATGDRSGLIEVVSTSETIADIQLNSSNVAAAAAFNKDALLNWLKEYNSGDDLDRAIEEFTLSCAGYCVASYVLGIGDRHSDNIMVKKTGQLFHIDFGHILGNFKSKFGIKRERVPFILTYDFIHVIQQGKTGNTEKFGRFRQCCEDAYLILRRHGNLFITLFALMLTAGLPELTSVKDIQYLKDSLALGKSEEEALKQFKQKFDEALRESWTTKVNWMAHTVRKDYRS
T1 sequence (P42336 with tags, fused parts or gaps limits assumed): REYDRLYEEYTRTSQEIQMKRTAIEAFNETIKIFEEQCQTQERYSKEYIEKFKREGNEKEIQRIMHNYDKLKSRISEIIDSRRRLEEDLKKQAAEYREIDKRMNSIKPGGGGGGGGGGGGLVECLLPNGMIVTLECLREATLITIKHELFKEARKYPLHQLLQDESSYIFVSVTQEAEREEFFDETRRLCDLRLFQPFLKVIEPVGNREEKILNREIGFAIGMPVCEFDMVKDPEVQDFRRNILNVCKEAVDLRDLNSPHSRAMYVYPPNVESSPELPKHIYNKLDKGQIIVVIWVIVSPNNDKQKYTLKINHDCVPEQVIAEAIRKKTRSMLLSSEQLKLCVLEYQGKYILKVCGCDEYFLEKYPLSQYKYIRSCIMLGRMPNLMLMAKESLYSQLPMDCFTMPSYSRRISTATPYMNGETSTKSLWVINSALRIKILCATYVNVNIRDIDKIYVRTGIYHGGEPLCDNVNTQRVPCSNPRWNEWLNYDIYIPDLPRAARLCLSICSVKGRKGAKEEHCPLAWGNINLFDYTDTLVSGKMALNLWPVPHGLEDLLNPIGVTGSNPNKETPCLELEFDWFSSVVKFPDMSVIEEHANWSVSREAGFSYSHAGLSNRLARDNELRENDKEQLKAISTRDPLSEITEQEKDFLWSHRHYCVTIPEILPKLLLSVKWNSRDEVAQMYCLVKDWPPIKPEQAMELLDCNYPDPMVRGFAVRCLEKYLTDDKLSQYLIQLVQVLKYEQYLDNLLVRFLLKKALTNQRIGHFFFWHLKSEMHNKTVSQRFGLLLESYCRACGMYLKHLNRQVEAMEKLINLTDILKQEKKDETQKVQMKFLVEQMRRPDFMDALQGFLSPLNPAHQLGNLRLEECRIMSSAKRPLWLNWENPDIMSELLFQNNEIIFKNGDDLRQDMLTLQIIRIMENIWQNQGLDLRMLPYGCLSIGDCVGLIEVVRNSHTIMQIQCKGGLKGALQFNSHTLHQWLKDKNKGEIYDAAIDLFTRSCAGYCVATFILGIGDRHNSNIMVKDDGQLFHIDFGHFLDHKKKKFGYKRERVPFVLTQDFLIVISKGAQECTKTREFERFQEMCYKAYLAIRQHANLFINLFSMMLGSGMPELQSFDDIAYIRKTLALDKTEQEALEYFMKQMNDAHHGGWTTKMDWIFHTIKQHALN

Take `CCOc1cncc(-c2ccc3ncc4c(c3c2)n(-c2c(C)nn(C)c2C)c(=O)n4C)c1` [Example 56.3, 8-(5-Ethoxy-pyridin-3-yl)-3-methyl-1-(1,3,5-trimethyl-1H-pyrazol-4-yl)-1,3-dihydro-imidazo[4,5-c]quinolin-2-one]: in “Solubility at pH 6.8” (setting [4]), the solubility was found to be 300 µg/mL (≈ 700 µM). Moreover, the IC50 turned out to be 82 nM at PI3K alpha; 228 nM on PI3K beta; 129 nM at PI3K delta; 257 nM on PI3K gamma; 304 nM in data set [1].
Take `COc1ccc(-c2ccc3ncc4c(c3c2)n(-c2c(C)cnn2C)c(=O)n4C)cc1OC` [Example 1.7, 8-(3,4-Dimethoxy-phenyl)-1-(2,4-dimethyl-2H-pyrazol-3-yl)-3-methyl-1,3-dihydro-imidazo[4,5-c]quinolin-2-one]: the solubility in “Solubility at pH 6.8” (setting [4]) worked out at 6 µg/mL (≈ 14 µM). Also, the half-inhibitory concentration (IC50) came out at 59 nM on PI3K alpha; 152 nM on PI3K beta; 169 nM at PI3K delta; 120 nM at PI3K gamma; 82 nM in [1]; 147 nM in data set [2]. Further, the IC50 in [3] stood at 249 nM.
As for `Cc1nn(C)c(C)c1-n1c(=O)n(C)c2cnc3ccc(-c4ccccc4)cc3c21` [Example 37.2, 3-Methyl-8-phenyl-1-(1,3,5-trimethyl-1H-pyrazol-4-yl)-1,3-dihydro-imidazo[4,5-c]quinolin-2-one], the solubility in “Solubility at pH 6.8” (setting [4]) was 355 µg/mL (≈ 926 µM). Also, the half-maximal inhibitory concentration (IC50) at PI3K alpha turned out to be 250 nM; on PI3K delta, 465 nM; at PI3K gamma, 335 nM.
Regarding `Cc1nn(C)cc1-n1c(=O)n(C)c2cnc3ccc(-c4ccc(C(=O)N(C)C)cc4)cc3c21` [Example 48, 4-[1-(1,3-Dimethyl-1H-pyrazol-4-yl)-3-methyl-2-oxo-2,3-dihydro-1H-imidazo[4,5-c]quinolin-8-yl]-N,N-dimethyl-benzamide], the solubility in “Solubility at pH 6.8” (pH 6.8) was 2 µg/mL (≈ 4.54 µM). In addition, the IC50 at PI3K gamma is 760 nM.
Regarding `Cc1nn(C)cc1-n1c(=O)n(C)c2cnc3ccc(-c4cnccn4)cc3c21` [Example 115, 1-(1,3-Dimethyl-1H-pyrazol-4-yl)-3-methyl-8-pyrazin-2-yl-1,3-dihydro-imidazo[4,5-c]quinolin-2-one], the solubility in “Solubility at pH 6.8” (setting [4]) worked out at 128 µg/mL (≈ 345 µM). Further, the IC50 at PI3K alpha worked out at 148 nM; at PI3K delta, 800 nM; at PI3K gamma, 851 nM; in data set [1] it was 208 nM; in [2] it was 308 nM.
For the compound `Cc1nn(C)c(C)c1-n1c(=O)n(C)c2cnc3ccc(-c4cccnc4)cc3c21` [Example 10.1, 3-Methyl-8-pyridin-3-yl-1-(1,3,5-trimethyl-1H-pyrazol-4-yl)-1,3-dihydro-imidazo[4,5-c]quinolin-2-one], the solubility in “Solubility at pH 6.8” (setting [4]) is > 384 µg/mL. For the same compound, the IC50 on PI3K alpha came out at 136 nM; on PI3K beta it was 799 nM; on PI3K delta, 292 nM; at PI3K gamma, 273 nM; in data set [1] it was 594 nM; in data set [2], 937 nM. For the same compound, in [3], the IC50 stood at 1630 nM.
On to `Cc1nn(C)c(C)c1-n1c(=O)n(C)c2cnc3ccc(-c4cccc(S(=O)(=O)N(C)C)c4)cc3c21` [Example 53.2, N,N-Dimethyl-3-[3-methyl-2-oxo-1-(1,3,5-trimethyl-1H-pyrazol-4-yl)-2,3-dihydro-1H-imidazo[4,5-c]quinolin-8-yl]-benzenesulfonamide], for which the solubility in “Solubility at pH 6.8” (setting [4]) was found to be 40 µg/mL (≈ 81.5 µM). For the same compound, the IC50 worked out at 94 nM on PI3K alpha; 843 nM on PI3K beta; 93 nM on PI3K delta; 183 nM at PI3K gamma; 375 nM in data set [1]; 634 nM in data set [2]. For the same compound, the IC50 in data set [3] was 672 nM.
Take `COc1ccc(-c2ccc3ncc4c(c3c2)n(-c2c(C)cnn2C)c(=O)n4C)cn1` [Example 2.1, 1-(2,4-Dimethyl-2H-pyrazol-3-yl)-8-(6-methoxy-pyridin-3-yl)-3-methyl-1,3-dihydro-imidazo[4,5-c]quinolin-2-one]: the solubility in the data set “Solubility at pH 6.8” (setting [4]) came to 8 µg/mL (≈ 20 µM). The IC50 came to 94 nM on PI3K alpha; 241 nM at PI3K beta; 432 nM on PI3K delta; 140 nM on PI3K gamma; 552 nM in data set [1]; 795 nM in [2]. For the same compound, the IC50 in data set [3] is 946 nM.
For `Cc1nn(C)cc1-n1c(=O)n(C)c2cnc3ccc(-c4ccc(-c5nn[nH]n5)nc4)cc3c21` [Example 123, 1-(1,3-Dimethyl-1H-pyrazol-4-yl)-3-methyl-8-[6-(2H-tetrazol-5-yl)-pyridin-3-yl]-1,3-dihydro-imidazo[4,5-c]quinolin-2-one], in the data set “Solubility at pH 6.8” (setting [4]), the solubility turned out to be 65 µg/mL (≈ 148 µM). Besides, the IC50 at PI3K alpha came to 446 nM; on PI3K gamma it was 173 nM; on mTOR, 232 nM.

The term solubility denotes the concentration that dissolves in the medium under given conditions. One may read the IC50 as the concentration needed to halve the response being measured.

The values are drawn from patent US20140005163A1 (NOVARTIS AG, priority 2010, published 2014).
